Laboratory results: US5840917A, “Phosphorylamides, their preparation and use” (Takeda Chemical Industries, Ltd., priority 1995, dated 1998)
Read-outs that look alike come from different tables or passages of the source.

Experiments:
[1] = target: T1, Helicobacter pylori-derived urease (Helicobacter pylori, UniProt P69996); assay: Screening of urease inhibitors (ammonia yield from urea); format: biochemical
T1 construct: an urease solution prepared from Helicobacter pylori; endogenous in cells
Procedure: Screening of Urease Inhibitors
One hundred (100) μl of 100 mM Bis-Tris buffer (pH 6.5) and 60 μl of an urease solution prepared from Helicobacter pylori were added to 20 μl of a test drug dissolved in 0.1% dimethylformamide solution. The mixture was incubated at room temperature for 30 minutes, and then 20 μl of 100 mM urea was added. The mixture was kept at room temperature for 10 minutes, and then the yielded ammonia in the incubation mixture was measured using a commercial test kit (Ammonia Test Wako®; Wako Pure Chemical). The percent inhibition against the yield of ammonia in the solvent addition group was calculated to obtain the IC50 value.

[2] = test system: Helicobacter pylori (CPY-433 F4); assay: Bacteria eradication effect of urease inhibitor (in vivo) in infected mice; settings: male ICR mice, 10 mg/kg p.o. twice daily, lansoprazole 30 mg/kg s.c. once daily before first dose
[3] = test system: Helicobacter pylori CPY 433 F4; assay: Bacteria eradication effect of flurofamide in infected mice; format: in vivo; settings: male Crj:ICR mice; 100 mg/kg p.o. twice daily, 7 days, in 0.5% methylcellulose containing 1% sodium bicarbonate; * p<0.05 (chi^2 test); control 0/4
Procedure: Bacteria Eradication Effect of Flurofamide
To 5-week-aged male Crj:ICR mice previously fasted for 30 hours, Helicobacter pylori CPY 433 F4 was inoculated intragastrically at 10^7 CFU per mouse. One week after the infection, a test compound which was suspended in 0.5% methylcellulose containing 1% sodium bicarbonate was orally administered at 100 mg/kg twice daily for 7 days. On the next day after the final administration, the stomach of the infected mouse was excised and homogenated. A series of 10-fold dilutions were inoculated to modified Skirrow medium supplemented with activated charcoal and incubated at 37° C. for 4 days under slightly aerobic conditions. The bacteria eradication effect was determined by investigating whether bacterial growth was seen or not.

[4] = 4 days for therapy, control 0/5

T1 sequence (P69996 whole entry, looked up): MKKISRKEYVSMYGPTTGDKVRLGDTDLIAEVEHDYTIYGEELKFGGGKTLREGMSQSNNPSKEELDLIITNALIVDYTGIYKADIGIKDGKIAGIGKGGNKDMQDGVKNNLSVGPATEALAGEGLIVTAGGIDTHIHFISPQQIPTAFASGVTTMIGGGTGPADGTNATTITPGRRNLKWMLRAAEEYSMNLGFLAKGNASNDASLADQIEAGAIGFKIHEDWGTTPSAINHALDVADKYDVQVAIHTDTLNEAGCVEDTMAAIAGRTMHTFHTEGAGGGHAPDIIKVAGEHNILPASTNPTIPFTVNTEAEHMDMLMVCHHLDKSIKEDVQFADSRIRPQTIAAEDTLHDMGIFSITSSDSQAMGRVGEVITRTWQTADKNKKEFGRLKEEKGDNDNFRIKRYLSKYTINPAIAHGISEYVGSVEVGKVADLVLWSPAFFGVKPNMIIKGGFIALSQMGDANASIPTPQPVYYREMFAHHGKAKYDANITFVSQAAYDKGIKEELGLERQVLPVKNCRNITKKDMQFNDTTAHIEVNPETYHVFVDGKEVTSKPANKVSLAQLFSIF

Row | SMILES | IC50 [1] [nM] | Eradication Rate ([2]; 2 days for therapy) | Eradication Rate [2, 4] | also measured
1 | NP(N)(=O)NC(=O)c1ccoc1Cl [Example 45, N-(Diaminophosphinyl)-2-chloro-3-furancarboxamide] | 1.4 | 1/5 | – | –
2 | N#Cc1ccc(C(=O)NP(N)(N)=O)cc1 [Reference Example 17, N-(Diaminophosphinyl)-4-cyanobenzamide] | 5.4 | – | 1/5 | –
3 | NP(N)(=O)NC(=O)c1ccc(Cl)s1 [Example 5, N-(Diaminophosphinyl)-5-chloro-2-thiophenecarboxamide] | 3 | – | 3/5 | –
4 | NP(N)(=O)NC(=O)c1csc(Cl)c1 [Example 30, N-(Diaminophosphinyl)-5-chloro-3-thiophenecarboxamide] | 4.3 | 1/5 | – | –
5 | CCc1ccc(C(=O)NP(N)(N)=O)o1 [Example 44, N-(Diaminophosphinyl)-5-ethyl-2-furancarboxamide] | 14 | 1/5 | – | –
6 | NP(N)(=O)NC(=O)c1ccc(F)cc1 [Reference Example 1, N-(Diaminophosphinyl)-4-fluorobenzamide, reference compound] | – | – | – | IC50 ([1]; Bis-Tris pH 6.5, room temperature, 30 min preincubation, 10 min with urea, read-out: IC50, inhibitory effect against Helicobacter pylori-derived urease): 5 nM; Eradication Rate [3]: 4/5
7 | NP(N)(=O)NC(=O)c1ccco1 [Reference Example 25, N-(Diaminophosphinyl)-2-furancarboxamide] | 1.9 | – | 1/5 | –
8 | CCc1ccc(C(=O)NP(N)(N)=O)s1 [Example 9, N-(Diaminophosphinyl)-5-ethyl-2-thiophenecarboxamide] | 13 | 1/5 | – | –
9 | Cc1sccc1C(=O)NP(N)(N)=O [Example 15, N-(Diaminophosphinyl)-2-methyl-3-thiophenecarboxamide] | 1.7 | 2/5 | – | –
10 | NP(N)(=O)NC(=O)COc1ccc(F)cc1 [Example 54, N-(Diaminophosphinyl)-4-fluorophenoxyacetamide] | 3.3 | – | – | Eradication Rate ([2]; 3 days for therapy): 1/5
11 | NP(N)(=O)NC(=O)c1csc(Br)c1 [Example 11, N-(Diaminophosphinyl)-5-bromo-3-thiophenecarboxamide] | 4.2 | 1/5 | – | –
12 | NP(N)(=O)NC(=O)c1ccoc1 [Reference Example 29, N-(Diaminophosphinyl)-3-furancarboxamide] | 5.9 | – | 2/5 | –
13 | Cc1ccc(C(=O)NP(N)(N)=O)s1 [Example 3, N-(Diaminophosphinyl)-5-methyl-2-thiophenecarboxamide] | 5.5 | – | 2/5 | –
14 | NP(N)(=O)NC(=O)c1cc(Cl)sc1Cl [Example 25, N-(Diaminophosphinyl)-2,5-dichloro-3-thiophenecarboxamide] | 1.1 | 1/5 | – | –
15 | NP(N)(=O)NC(=O)c1coc(Cl)c1 [Example 46, N-(Diaminophosphinyl)-5-chloro-3-furancarboxamide] | 5.7 | 1/5 | – | –
16 | CC(=O)c1ccc(C(=O)NP(N)(N)=O)s1 [Example 17, N-(Diaminophosphinyl)-5-acetyl-2-thiophenecarboxamide] | 8.2 | 1/5 | – | –
17 | NP(N)(=O)NC(=O)c1cccc([N+](=O)[O-])c1 [Reference Example 23, N-(Diaminophosphinyl)-3-nitrobenzamide] | 5.7 | – | 1/5 | –
